Consider 11 compounds from patent US10780074B2, “Compounds and uses thereof” (Sunovion Pharmaceuticals Inc., priority 2017, dated 2020).

As usually defined, the minimal effective dose is the smallest amount tested that counted as effective.

Where a name gives a salt, the structure may show the parent alone.

The test system of this test is behaviors of compound-treated mice. Put plainly: Neuropharmacological Assay (SmartCube). The settings on record: for minimal effective dose: Mus musculus, ip, 0.25 h, dose having 50% or more total activity in SmartCube, i.p., read-out: MED (minimal effective dose); for AD: ADHD (probability that activity matches class) / AG: analgesic (probability that activity matches class) / AX: anxiolytic (probability that activity matches class) / CE: cognitive enhancer (probability that activity matches class) / DP: anti-depressant (probability that activity matches class) / MS: mood stabilizer (probability that activity matches class) / PS: anti-psychotic (probability that activity matches class) / SD: sedative hypnotic (probability that activity matches class) / UN: uncharacterized CNS activity (probability that activity matches class): i.p. 15 min before behavioral test, most efficacious dose(s) of 3 doses. The class given is in vivo. Summed up:
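Mice dosed i.p. 15 min before testing, with compound in N-methyl-2-pyrrolidone/PEG/propylene glycol, were video-recorded and algorithmically compared with reference-drug behavioral signatures. This gave class-match probabilities (antidepressant, anxiolytic, etc.) at the most efficacious of 3 doses. MED was defined as the dose with ≥50% total activity, usually tested across 0.3–30 mpk.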

For the compound `NC[C@@H]1OCCCc2c(-c3ccccn3)cccc21` [Compound 158, (R)-(6-(pyridin-2-yl)-1,3,4,5-tetrahydrobenzo[c]oxepin-1-yl)methanamine hydrochloride salt], the minimal effective dose was in the range of 10 to 30 mg/kg, the “AD: ADHD (probability that activity matches class)” value (“AD: ADHD” for short) is “+ (LOQ ≤ + <5%)”, the “AG: analgesic (probability that activity matches class)” value (“AG: analgesic” for short) is “+ (LOQ ≤ + <5%)” and the “AX: anxiolytic (probability that activity matches class)” value (from here on “AX: anxiolytic”) was “++ (5% ≤ ++ <25%)”. Further, the “CE: cognitive enhancer (probability that activity matches class)” value (shortened to “CE: cognitive enhancer”) is “+ (LOQ ≤ + <5%)”, the “DP: anti-depressant (probability that activity matches class)” value (“DP: anti-depressant” below) is “+ (LOQ ≤ + <5%)”, the “MS: mood stabilizer (probability that activity matches class)” value (shortened to “MS: mood stabilizer”) is reported as “+ (LOQ ≤ + <5%)” and the “PS: anti-psychotic (probability that activity matches class)” value (“PS: anti-psychotic” for short) is reported as “+ (LOQ ≤ + <5%)”. The “SD: sedative hypnotic (probability that activity matches class)” value (shortened to “SD: sedative hypnotic”) is on record as “+ (LOQ ≤ + <5%)” and the “UN: uncharacterized CNS activity (probability that activity matches class)” value (shortened to “UN: uncharacterized CNS activity”) is given as “+ (LOQ ≤ + <5%)”.
Consider `NCC1OCCc2c(-c3cccnn3)cccc21` (centres unmarked) [Compound 62, (5-(Pyridazin-3-yl)isochroman-1-yl)methanaminehydrochloride salt], for which the minimal effective dose is more than 30 mg/kg, the “AD: ADHD” value was “+ (LOQ ≤ + <5%)”, the “AG: analgesic” value is “+ (LOQ ≤ + <5%)” and the “AX: anxiolytic” value is reported as “++ (5% ≤ ++ <25%)”. Besides, the “CE: cognitive enhancer” value is “+ (LOQ ≤ + <5%)”, the “DP: anti-depressant” value is reported as “++ (5% ≤ ++ <25%)”, the “MS: mood stabilizer” value is on record as “+ (LOQ ≤ + <5%)” and the “PS: anti-psychotic” value is “+ (LOQ ≤ + <5%)”. The “SD: sedative hypnotic” value was “+ (LOQ ≤ + <5%)” and the “UN: uncharacterized CNS activity” value is on record as “+ (LOQ ≤ + <5%)”.
Take `CNC[C@@H]1OCCc2c(-c3cncs3)cccc21` (single isomer, unassigned) [Compound 68, hydrochloride salt]: the minimal effective dose was in the range of 3 to 10 mg/kg, the “AD: ADHD” value was “++ (5% ≤ ++ <25%)”, the “AG: analgesic” value is recorded as “+ (LOQ ≤ + <5%)” and the “AX: anxiolytic” value is given as “++ (5% ≤ ++ <25%)”. The “CE: cognitive enhancer” value is “+ (LOQ ≤ + <5%)”, the “DP: anti-depressant” value was “++++ (50% ≤ ++++)”, the “MS: mood stabilizer” value was “+ (LOQ ≤ + <5%)” and the “PS: anti-psychotic” value is listed as “+ (LOQ ≤ + <5%)”. The “SD: sedative hypnotic” value was “+ (LOQ ≤ + <5%)” and the “UN: uncharacterized CNS activity” value is “++ (5% ≤ ++ <25%)”.
Take `Cc1cc(-c2cccc3c2CCO[C@H]3CN)cc(C)n1` [Compound 126, dihydrochloride]: the minimal effective dose was 10 to 30 mg/kg, the “AD: ADHD” value is given as “+ (LOQ ≤ + <5%)”, the “AG: analgesic” value is given as “+ (LOQ ≤ + <5%)” and the “AX: anxiolytic” value was “+ (LOQ ≤ + <5%)”. For the same compound, the “CE: cognitive enhancer” value is reported as “+ (LOQ ≤ + <5%)”, the “DP: anti-depressant” value is given as “+ (LOQ ≤ + <5%)”, the “MS: mood stabilizer” value is on record as “+ (LOQ ≤ + <5%)” and the “PS: anti-psychotic” value is reported as “+ (LOQ ≤ + <5%)”. For the same compound, the “SD: sedative hypnotic” value was “+ (LOQ ≤ + <5%)” and the “UN: uncharacterized CNS activity” value is on record as “+ (LOQ ≤ + <5%)”.
`NC[C@@H]1OCCc2c(-c3ccnnc3)cccc21` (single isomer, unassigned) [Compound 78, hydrochloride salt]: the minimal effective dose is 3 to 10 mg/kg, the “AD: ADHD” value is reported as “+ (LOQ ≤ + <5%)”, the “AG: analgesic” value is on record as “+ (LOQ ≤ + <5%)” and the “AX: anxiolytic” value is “++ (5% ≤ ++ <25%)”. Moreover, the “CE: cognitive enhancer” value was “+ (LOQ ≤ + <5%)”, the “DP: anti-depressant” value is on record as “+ (LOQ ≤ + <5%)”, the “MS: mood stabilizer” value is reported as “+ (LOQ ≤ + <5%)” and the “PS: anti-psychotic” value is “+ (LOQ ≤ + <5%)”. Also, the “SD: sedative hypnotic” value is on record as “+ (LOQ ≤ + <5%)” and the “UN: uncharacterized CNS activity” value was “+ (LOQ ≤ + <5%)”.
Regarding `NC[C@H]1OCCc2c(-c3ccno3)cccc21` (single isomer, unassigned) [Compound 93, hydrochloride salt], the minimal effective dose lay in the range of 10 to 30 mg/kg, the “AD: ADHD” value was “+ (LOQ ≤ + <5%)”, the “AG: analgesic” value was “+ (LOQ ≤ + <5%)” and the “AX: anxiolytic” value is given as “+ (LOQ ≤ + <5%)”. Further, the “CE: cognitive enhancer” value is recorded as “+ (LOQ ≤ + <5%)”, the “DP: anti-depressant” value is given as “+ (LOQ ≤ + <5%)”, the “MS: mood stabilizer” value is given as “+ (LOQ ≤ + <5%)” and the “PS: anti-psychotic” value is “+ (LOQ ≤ + <5%)”. The “SD: sedative hypnotic” value is reported as “+ (LOQ ≤ + <5%)” and the “UN: uncharacterized CNS activity” value was “+ (LOQ ≤ + <5%)”.
Turning to `NC[C@@H]1OCCc2c(-c3cccnc3)cccc21` [Compound 15, (R)-(5-(Pyridin-3-yl)isochroman-1-yl)methanamine hydrochloride], the minimal effective dose was in the range of 10 to 30 mg/kg, the “AD: ADHD” value is “++ (5% ≤ ++ <25%)”, the “AG: analgesic” value was “++ (5% ≤ ++ <25%)” and the “AX: anxiolytic” value was “++ (5% ≤ ++ <25%)”. For the same compound, the “CE: cognitive enhancer” value was “+ (LOQ ≤ + <5%)”, the “DP: anti-depressant” value is listed as “+++ (25% ≤ +++ <50%)”, the “MS: mood stabilizer” value is recorded as “++ (5% ≤ ++ <25%)” and the “PS: anti-psychotic” value is on record as “++ (5% ≤ ++ <25%)”. The “SD: sedative hypnotic” value is “+ (LOQ ≤ + <5%)” and the “UN: uncharacterized CNS activity” value is “+ (LOQ ≤ + <5%)”.
As to `CNC[C@H]1OCCc2c(-c3ccccc3)cccc21` (single isomer, unassigned) [Compound 129, hydrochloride salt], the minimal effective dose is 3 to 10 mg/kg, the “AD: ADHD” value was “+ (LOQ ≤ + <5%)”, the “AG: analgesic” value is on record as “+ (LOQ ≤ + <5%)” and the “AX: anxiolytic” value is given as “+ (LOQ ≤ + <5%)”. The “CE: cognitive enhancer” value was “++ (5% ≤ ++ <25%)”, the “DP: anti-depressant” value is “++++ (50% ≤ ++++)”, the “MS: mood stabilizer” value is listed as “+ (LOQ ≤ + <5%)” and the “PS: anti-psychotic” value is reported as “+ (LOQ ≤ + <5%)”. Further, the “SD: sedative hypnotic” value is on record as “++ (5% ≤ ++ <25%)” and the “UN: uncharacterized CNS activity” value is on record as “+ (LOQ ≤ + <5%)”.
With `CNC[C@H]1OCc2c(-c3ccncc3)cccc21` [Compound 40, (S)—N-Methyl-1-(4-(pyridin-4-yl)-1,3-dihydroisobenzofuran-1-yl)methanamine hydrochloride salt], the minimal effective dose was not above 3 mg/kg, the “AD: ADHD” value was “++ (5% ≤ ++ <25%)”, the “AG: analgesic” value is on record as “++++ (50% ≤ ++++)” and the “AX: anxiolytic” value is reported as “++ (5% ≤ ++ <25%)”. Moreover, the “CE: cognitive enhancer” value is on record as “++ (5% ≤ ++ <25%)”, the “DP: anti-depressant” value is given as “++++ (50% ≤ ++++)”, the “MS: mood stabilizer” value is on record as “+ (LOQ ≤ + <5%)” and the “PS: anti-psychotic” value is listed as “+ (LOQ ≤ + <5%)”. Also, the “SD: sedative hypnotic” value was “+ (LOQ ≤ + <5%)” and the “UN: uncharacterized CNS activity” value is given as “+ (LOQ ≤ + <5%)”.
As to `CNC[C@@H]1OCCc2c(-c3cocn3)cccc21` [Compound 102, (R)—N-methyl-1-(5-(oxazol-4-yl)isochroman-1-yl)methanamine HCl salt], the minimal effective dose is 10 to 30 mg/kg, the “AD: ADHD” value was “+ (LOQ ≤ + <5%)”, the “AG: analgesic” value is “+ (LOQ ≤ + <5%)” and the “AX: anxiolytic” value is reported as “++ (5% ≤ ++ <25%)”. For the same compound, the “CE: cognitive enhancer” value was “+ (LOQ ≤ + <5%)”, the “DP: anti-depressant” value is on record as “+ (LOQ ≤ + <5%)”, the “MS: mood stabilizer” value is given as “+ (LOQ ≤ + <5%)” and the “PS: anti-psychotic” value is recorded as “+ (LOQ ≤ + <5%)”. For the same compound, the “SD: sedative hypnotic” value is given as “+ (LOQ ≤ + <5%)” and the “UN: uncharacterized CNS activity” value is given as “+ (LOQ ≤ + <5%)”.
Turning to `NC[C@H]1OCCc2c(-c3ccncc3)cccc21` [Compound 20, (S)-(5-(Pyridin-4-yl)isochroman-1-yl)methanamine hydrochloride salt], the minimal effective dose was not above 3 mg/kg, the “AD: ADHD” value is “++ (5% ≤ ++ <25%)”, the “AG: analgesic” value is on record as “++ (5% ≤ ++ <25%)” and the “AX: anxiolytic” value is recorded as “++ (5% ≤ ++ <25%)”. Moreover, the “CE: cognitive enhancer” value is “+ (LOQ ≤ + <5%)”, the “DP: anti-depressant” value is given as “++++ (50% ≤ ++++)”, the “MS: mood stabilizer” value was “+ (LOQ ≤ + <5%)” and the “PS: anti-psychotic” value is on record as “+ (LOQ ≤ + <5%)”. Further, the “SD: sedative hypnotic” value was “+ (LOQ ≤ + <5%)” and the “UN: uncharacterized CNS activity” value is “++++ (50% ≤ ++++)”.
